Laboratory results: ChEMBL document CHEMBL3526086, “Identification of the oxidative and conjugative enzymes involved in the biotransformation of brivanib” (Drug Metab Dispos, 2012)

Key:
Sulfotransferase 1A1 = Sulfotransferase 1A1 (Homo sapiens, UniProt P50225); experiment: Activity of human SULT1A1 assessed as compound formation treated with 2 and 20 uM brivanib for 30 mins by LC/MS analysis in presence of PAPS; type: ADME; conditions: 0.5 h
Sulfotransferase 1B1 = Sulfotransferase 1B1 (Homo sapiens, UniProt O43704); experiment: Activity of human SULT1B1 assessed as compound formation treated with 2 and 20 uM brivanib for 30 mins by LC/MS analysis in presence of PAPS; type: ADME; conditions: 0.5 h
Sequence of Sulfotransferase 1B1 (O43704 whole entry): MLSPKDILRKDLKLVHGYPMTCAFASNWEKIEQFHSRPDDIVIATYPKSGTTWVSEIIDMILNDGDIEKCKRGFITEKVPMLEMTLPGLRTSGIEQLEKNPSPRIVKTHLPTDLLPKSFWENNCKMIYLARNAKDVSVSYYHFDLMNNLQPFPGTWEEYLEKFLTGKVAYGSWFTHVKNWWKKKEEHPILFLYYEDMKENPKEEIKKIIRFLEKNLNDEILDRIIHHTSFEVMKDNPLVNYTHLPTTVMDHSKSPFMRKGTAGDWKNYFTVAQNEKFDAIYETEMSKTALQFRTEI

Liver cytosol [1] = experiment: Drug level in human liver cytosol treated with 2 uM [14C]brivanib alaninate for 2 hrs by LC/MS analysis in presence of PAPS; type: ADME, tissue-based
Sulfotransferase 1A3 = Sulfotransferase 1A3 (Homo sapiens, UniProt P0DMM9); experiment: Activity of human SULT1A3 assessed as compound formation treated with 2 and 20 uM brivanib for 30 mins by LC/MS analysis in presence of PAPS; type: ADME; conditions: 0.5 h
Sequence of Sulfotransferase 1A3 (P0DMM9 whole entry): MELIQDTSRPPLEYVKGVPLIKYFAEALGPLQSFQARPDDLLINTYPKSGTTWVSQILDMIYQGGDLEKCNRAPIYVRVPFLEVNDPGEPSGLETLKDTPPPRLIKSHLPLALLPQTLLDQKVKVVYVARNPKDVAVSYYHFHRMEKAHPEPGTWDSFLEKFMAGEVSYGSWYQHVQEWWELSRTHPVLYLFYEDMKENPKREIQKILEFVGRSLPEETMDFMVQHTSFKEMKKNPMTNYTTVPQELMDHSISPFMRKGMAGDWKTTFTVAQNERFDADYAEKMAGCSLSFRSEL

Sulfotransferase 1E1 = Sulfotransferase 1E1 (Homo sapiens, UniProt P49888); experiment: Activity of human SULT1E1 assessed as compound formation treated with 2 and 20 uM brivanib for 30 mins by LC/MS analysis in presence of PAPS; type: ADME; conditions: 0.5 h
Sequence of Sulfotransferase 1E1 (P49888 whole entry): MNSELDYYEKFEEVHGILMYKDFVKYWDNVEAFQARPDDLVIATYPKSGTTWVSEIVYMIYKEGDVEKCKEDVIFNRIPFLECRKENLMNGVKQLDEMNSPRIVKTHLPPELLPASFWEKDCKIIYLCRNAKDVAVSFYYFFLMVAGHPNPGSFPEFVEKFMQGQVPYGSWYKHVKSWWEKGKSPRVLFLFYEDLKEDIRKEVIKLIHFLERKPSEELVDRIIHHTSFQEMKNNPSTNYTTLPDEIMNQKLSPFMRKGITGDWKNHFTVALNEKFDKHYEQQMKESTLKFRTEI

Sulfotransferase 2A1 = Sulfotransferase 2A1 (Homo sapiens, UniProt Q06520); experiment: Activity of human SULT2A1 assessed as compound formation treated with 2 and 20 uM brivanib for 30 mins by LC/MS analysis in presence of PAPS; type: ADME; conditions: 0.5 h
Sequence of Sulfotransferase 2A1 (Q06520 whole entry): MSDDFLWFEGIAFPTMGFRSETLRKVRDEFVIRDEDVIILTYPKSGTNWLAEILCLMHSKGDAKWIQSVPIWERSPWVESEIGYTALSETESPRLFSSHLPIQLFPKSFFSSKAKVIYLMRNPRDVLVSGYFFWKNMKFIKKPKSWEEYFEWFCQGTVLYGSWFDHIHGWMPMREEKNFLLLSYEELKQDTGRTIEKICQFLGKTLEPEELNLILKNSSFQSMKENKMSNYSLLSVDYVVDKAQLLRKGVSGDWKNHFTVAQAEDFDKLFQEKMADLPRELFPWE

Liver microsome [2] = experiment: Drug metabolism in human liver microsomes assessed as 1-(4-(4-fluoro-2-methyl-1H-indol-5-yloxy)-5-methylpyrrolo[1,2-f][1,2,4]triazin-6-yloxy)propan-2-one formation at 2 uM for 60 mins by LC/MS analysis; type: ADME
Liver microsome [3] = experiment: Drug metabolism in human liver microsomes assessed as (R)-1-(4-(4-fluoro-2-(hydroxymethyl)-1H-indol-5-yloxy)-5-methylpyrrolo[1,2-f][1,2,4]triazin-6-yloxy)propan-2-ol formation at 2 uM for 60 mins by LC/MS analysis; type: ADME
Liver microsome [4] = experiment: Drug metabolism in human liver microsomes assessed as 1-(4-(4-fluoro-2-methyl-1H-indol-5-yloxy)-5-methylpyrrolo[1,2-f][1,2,4]triazin-6-yloxy)propan-2-one formation at 2 uM for 60 mins by LC/MS analysis in presence of NADPH; type: ADME
Liver microsome [5] = experiment: Drug metabolism in human liver microsomes assessed as (R)-4-fluoro-5-(6-(2-hydroxypropoxy)-5-methylpyrrolo[1,2-f][1,2,4]triazin-4-yloxy)-1H-indole-2-carboxylic acid formation at 2 uM for 60 mins by LC/MS analysis in presence of NADPH; type: ADME
Liver microsome [6] = experiment: Drug metabolism in human liver microsomes assessed as brivanib formation at 2 uM for 60 mins by LC/MS analysis; type: ADME; conditions: 1 h
Liver microsome [7] = experiment: Drug metabolism in human liver microsomes assessed as (R)-4-fluoro-5-(6-(2-hydroxypropoxy)-5-methylpyrrolo[1,2-f][1,2,4]triazin-4-yloxy)-1H-indole-2-carboxylic acid formation at 2 uM for 60 mins by LC/MS analysis; type: ADME
Liver microsome [8] = experiment: Drug metabolism in human liver microsomes assessed as brivanib formation at 2 uM for 60 mins by LC/MS analysis in presence of NADPH; type: ADME; conditions: 1 h
Liver microsome [9] = experiment: Drug metabolism in human liver microsomes assessed as (R)-1-(4-(4-fluoro-2-(hydroxymethyl)-1H-indol-5-yloxy)-5-methylpyrrolo[1,2-f][1,2,4]triazin-6-yloxy)propan-2-ol formation at 2 uM for 60 mins by LC/MS analysis in presence of NADPH; type: ADME
Liver cytosol [10] = experiment: Drug metabolism in human liver cytosol assessed as (R)-1-(4-(4-fluoro-2-methyl-1H-indol-5-yloxy)-5-methylpyrrolo[1,2-f][1,2,4]triazin-6-yloxy)propane-2-sulfonic acid formation at 2 uM for 2 hrs by LC/MS analysis in presence of PAPS; type: ADME
Cytochrome P450 2A6 = target: T1, Cytochrome P450 2A6 (Homo sapiens, UniProt P11509); experiment: Activity of human CYP2A6 assessed as compound formation treated with 2 and 20 uM brivanib for 20 mins by LC/MS analysis in presence of NADPH; type: ADME
T1 sequence (P11509 whole entry): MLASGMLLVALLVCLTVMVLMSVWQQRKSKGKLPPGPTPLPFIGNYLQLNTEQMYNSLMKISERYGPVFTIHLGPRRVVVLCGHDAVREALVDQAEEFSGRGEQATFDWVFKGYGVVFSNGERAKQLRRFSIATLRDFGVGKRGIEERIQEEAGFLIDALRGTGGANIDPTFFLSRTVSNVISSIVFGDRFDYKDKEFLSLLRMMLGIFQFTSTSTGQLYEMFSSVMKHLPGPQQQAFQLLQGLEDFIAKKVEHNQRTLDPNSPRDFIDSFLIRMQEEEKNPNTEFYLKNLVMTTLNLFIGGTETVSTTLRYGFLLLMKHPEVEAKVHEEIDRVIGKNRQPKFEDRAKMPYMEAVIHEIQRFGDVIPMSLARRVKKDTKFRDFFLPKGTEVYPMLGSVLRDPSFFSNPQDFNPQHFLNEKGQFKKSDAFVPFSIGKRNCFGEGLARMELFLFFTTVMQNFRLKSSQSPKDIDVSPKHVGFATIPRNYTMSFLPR

Liver microsome [11] = experiment: Drug level in human liver microsomes treated with 2 and 20 uM brivanib for 30 mins by LC/MS analysis in presence of 3 uM CYP2C8 inhibitor montekulast; type: ADME; conditions: 0.5 h
Cytochrome P450 2D6 = Cytochrome P450 2D6 (Homo sapiens, UniProt P10635); experiment: Activity of human CYP2D6 assessed as compound formation treated with 2 and 20 uM brivanib for 20 mins by LC/MS analysis in presence of NADPH; type: ADME
Sequence of Cytochrome P450 2D6 (P10635 whole entry): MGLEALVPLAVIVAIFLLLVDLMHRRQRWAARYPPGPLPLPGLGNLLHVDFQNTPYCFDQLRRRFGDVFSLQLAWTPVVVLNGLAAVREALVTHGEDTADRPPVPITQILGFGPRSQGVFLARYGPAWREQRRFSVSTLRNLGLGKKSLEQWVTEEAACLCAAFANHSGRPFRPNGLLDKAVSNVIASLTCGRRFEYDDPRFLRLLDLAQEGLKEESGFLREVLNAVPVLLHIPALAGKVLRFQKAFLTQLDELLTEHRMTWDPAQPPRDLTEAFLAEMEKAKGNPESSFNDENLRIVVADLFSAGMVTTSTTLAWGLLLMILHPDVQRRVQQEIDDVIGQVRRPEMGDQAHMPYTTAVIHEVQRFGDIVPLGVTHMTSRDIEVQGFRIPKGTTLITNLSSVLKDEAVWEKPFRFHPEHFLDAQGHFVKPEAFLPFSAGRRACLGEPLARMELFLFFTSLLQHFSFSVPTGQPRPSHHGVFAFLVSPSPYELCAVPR

Cytochrome P450 2C9 = Cytochrome P450 2C9 (Homo sapiens, UniProt P11712); experiment: Activity of human CYP2C9 assessed as compound formation treated with 2 and 20 uM brivanib for 20 mins by LC/MS analysis in presence of NADPH; type: ADME
Cytochrome P450 2C19 = Cytochrome P450 2C19 (Homo sapiens, UniProt P33261); experiment: Activity of human CYP2C19 assessed as compound formation treated with 2 and 20 uM brivanib for 20 mins by LC/MS analysis in presence of NADPH; type: ADME
Sequence of Cytochrome P450 2C19 (P33261 whole entry): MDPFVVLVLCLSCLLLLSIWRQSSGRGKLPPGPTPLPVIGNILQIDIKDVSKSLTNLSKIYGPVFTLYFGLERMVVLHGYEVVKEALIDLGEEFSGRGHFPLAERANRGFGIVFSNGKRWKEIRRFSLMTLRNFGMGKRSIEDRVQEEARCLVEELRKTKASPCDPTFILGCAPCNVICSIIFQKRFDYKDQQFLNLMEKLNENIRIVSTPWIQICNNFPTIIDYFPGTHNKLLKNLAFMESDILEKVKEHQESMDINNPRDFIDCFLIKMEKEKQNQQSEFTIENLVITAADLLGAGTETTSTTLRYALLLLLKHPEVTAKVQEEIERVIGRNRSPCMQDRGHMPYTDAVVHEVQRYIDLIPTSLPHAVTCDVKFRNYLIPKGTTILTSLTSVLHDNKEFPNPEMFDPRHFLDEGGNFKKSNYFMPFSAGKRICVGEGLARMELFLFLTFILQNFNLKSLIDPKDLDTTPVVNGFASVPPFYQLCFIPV

Cytochrome P450 1B1 = Cytochrome P450 1B1 (Homo sapiens, UniProt Q16678); experiment: Activity of human CYP1B1 assessed as compound formation treated with 2 and 20 uM brivanib for 20 mins by LC/MS analysis in presence of NADPH; type: ADME
Sequence of Cytochrome P450 1B1 (Q16678 whole entry): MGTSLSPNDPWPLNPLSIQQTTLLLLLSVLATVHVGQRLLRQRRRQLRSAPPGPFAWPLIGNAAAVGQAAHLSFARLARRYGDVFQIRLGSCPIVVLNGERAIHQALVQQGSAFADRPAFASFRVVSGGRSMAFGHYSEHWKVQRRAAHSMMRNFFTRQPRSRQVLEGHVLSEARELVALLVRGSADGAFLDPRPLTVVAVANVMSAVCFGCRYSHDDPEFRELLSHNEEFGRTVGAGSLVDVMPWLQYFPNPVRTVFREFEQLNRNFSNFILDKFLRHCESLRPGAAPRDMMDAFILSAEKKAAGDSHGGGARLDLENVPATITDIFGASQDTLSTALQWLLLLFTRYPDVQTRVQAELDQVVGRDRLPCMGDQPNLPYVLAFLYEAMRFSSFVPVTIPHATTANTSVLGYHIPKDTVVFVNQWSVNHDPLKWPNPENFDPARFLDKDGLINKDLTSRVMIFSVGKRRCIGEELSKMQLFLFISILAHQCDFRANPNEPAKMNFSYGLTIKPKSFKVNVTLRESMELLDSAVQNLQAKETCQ

Cytochrome P450 1A2 = target: T2, Cytochrome P450 1A2 (Homo sapiens, UniProt P05177); experiment: Activity of human CYP1A2 assessed as compound formation treated with 2 and 20 uM brivanib for 20 mins by LC/MS analysis in presence of NADPH; type: ADME
T2 sequence (P05177 whole entry): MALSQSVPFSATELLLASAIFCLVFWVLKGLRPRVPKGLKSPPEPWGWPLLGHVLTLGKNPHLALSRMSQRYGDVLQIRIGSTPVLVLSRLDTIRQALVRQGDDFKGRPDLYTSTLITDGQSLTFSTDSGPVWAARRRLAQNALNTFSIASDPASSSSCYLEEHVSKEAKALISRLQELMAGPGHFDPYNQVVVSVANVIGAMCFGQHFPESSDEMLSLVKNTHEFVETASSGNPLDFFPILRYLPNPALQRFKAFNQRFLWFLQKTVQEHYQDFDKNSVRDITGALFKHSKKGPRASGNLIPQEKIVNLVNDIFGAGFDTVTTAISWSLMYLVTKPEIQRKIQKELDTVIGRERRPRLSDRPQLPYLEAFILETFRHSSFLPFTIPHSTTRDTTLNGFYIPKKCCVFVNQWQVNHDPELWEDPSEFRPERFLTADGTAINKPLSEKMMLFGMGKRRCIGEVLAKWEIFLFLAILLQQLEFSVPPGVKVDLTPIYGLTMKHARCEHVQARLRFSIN

Cytochrome P450 1A1 = Cytochrome P450 1A1 (Homo sapiens, UniProt P04798); experiment: Activity of human CYP1A1 assessed as compound formation treated with 2 and 20 uM brivanib for 20 mins by LC/MS analysis in presence of NADPH; type: ADME
Sequence of Cytochrome P450 1A1 (P04798 whole entry): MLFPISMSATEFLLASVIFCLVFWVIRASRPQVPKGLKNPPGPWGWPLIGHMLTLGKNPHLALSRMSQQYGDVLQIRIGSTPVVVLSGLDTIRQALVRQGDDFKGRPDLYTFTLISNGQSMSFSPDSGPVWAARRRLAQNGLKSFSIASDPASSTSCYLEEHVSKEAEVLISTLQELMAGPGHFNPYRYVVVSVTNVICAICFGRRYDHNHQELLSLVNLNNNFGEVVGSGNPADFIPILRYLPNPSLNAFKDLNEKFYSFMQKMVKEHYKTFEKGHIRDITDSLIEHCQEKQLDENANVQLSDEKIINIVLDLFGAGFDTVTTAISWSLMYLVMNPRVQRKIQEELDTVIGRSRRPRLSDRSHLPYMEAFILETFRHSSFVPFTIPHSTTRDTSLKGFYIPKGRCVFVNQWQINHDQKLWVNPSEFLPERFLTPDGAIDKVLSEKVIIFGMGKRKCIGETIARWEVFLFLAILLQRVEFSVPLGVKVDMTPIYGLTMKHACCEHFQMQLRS

Cytochrome P450 2B6 = target: T3, Cytochrome P450 2B6 (Homo sapiens, UniProt P20813); experiment: Activity of human CYP2B6 assessed as compound formation treated with 2 and 20 uM brivanib for 20 mins by LC/MS analysis in presence of NADPH; type: ADME
T3 sequence (P20813 whole entry): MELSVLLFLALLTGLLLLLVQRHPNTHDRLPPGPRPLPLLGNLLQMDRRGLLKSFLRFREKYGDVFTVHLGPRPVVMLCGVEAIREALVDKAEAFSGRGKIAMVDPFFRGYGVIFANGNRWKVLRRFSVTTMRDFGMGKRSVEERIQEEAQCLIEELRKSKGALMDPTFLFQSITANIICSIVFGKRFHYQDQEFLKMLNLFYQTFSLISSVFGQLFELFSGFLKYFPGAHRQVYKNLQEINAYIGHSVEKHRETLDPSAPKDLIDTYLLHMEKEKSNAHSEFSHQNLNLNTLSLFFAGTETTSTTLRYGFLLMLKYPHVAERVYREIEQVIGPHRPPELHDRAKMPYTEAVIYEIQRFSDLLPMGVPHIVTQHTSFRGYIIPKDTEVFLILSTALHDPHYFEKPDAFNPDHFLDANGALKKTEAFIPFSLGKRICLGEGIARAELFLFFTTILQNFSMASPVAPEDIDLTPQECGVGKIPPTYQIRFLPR

Cytochrome P450 3A4 = Cytochrome P450 3A4 (Homo sapiens, UniProt P08684); experiment: Activity of human CYP3A4 assessed as compound formation treated with 2 and 20 uM brivanib for 20 mins by LC/MS analysis in presence of NADPH; type: ADME
Sequence of Cytochrome P450 3A4 (P08684 whole entry): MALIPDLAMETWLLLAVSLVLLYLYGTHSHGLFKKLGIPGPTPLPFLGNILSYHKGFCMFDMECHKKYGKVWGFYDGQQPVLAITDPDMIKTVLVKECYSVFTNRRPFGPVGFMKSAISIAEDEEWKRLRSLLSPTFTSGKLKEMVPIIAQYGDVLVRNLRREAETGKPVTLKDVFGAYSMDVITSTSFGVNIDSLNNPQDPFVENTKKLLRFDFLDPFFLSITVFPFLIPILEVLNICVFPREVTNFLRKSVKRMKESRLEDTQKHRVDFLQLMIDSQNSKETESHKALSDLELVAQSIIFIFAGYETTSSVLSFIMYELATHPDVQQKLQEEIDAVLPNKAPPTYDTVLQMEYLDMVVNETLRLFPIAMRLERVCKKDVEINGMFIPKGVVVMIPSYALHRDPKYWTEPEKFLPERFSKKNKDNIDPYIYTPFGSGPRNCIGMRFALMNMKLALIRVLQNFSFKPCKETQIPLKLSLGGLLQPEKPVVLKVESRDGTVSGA

Liver microsome [12] = experiment: Drug level in human liver microsomes assessed as compound formation treated with 2 uM [14C]brivanib alaninate for 60 mins by LC/MS analysis in presence of NADPH; type: ADME; conditions: 1 h
Liver microsome [13] = experiment: Drug level in human liver microsomes treated with 2 and 20 uM brivanib for 30 mins by LC/MS analysis in presence of 2 uM CYP2A6 inhibitor tranylcypromine; type: ADME; conditions: 0.5 h
Liver microsome [14] = experiment: Drug level in human liver microsomes treated with 2 and 20 uM brivanib for 30 mins by LC/MS analysis in presence of 50 uM CYP2B6 inhibitor orphenadrine; type: ADME; conditions: 0.5 h
Cytochrome P450 2C8 = target: T4, Cytochrome P450 2C8 (Homo sapiens, UniProt P10632); experiment: Activity of human CYP2C8 assessed as compound formation treated with 2 and 20 uM brivanib for 20 mins by LC/MS analysis in presence of NADPH; type: ADME
T4 sequence (P10632 whole entry): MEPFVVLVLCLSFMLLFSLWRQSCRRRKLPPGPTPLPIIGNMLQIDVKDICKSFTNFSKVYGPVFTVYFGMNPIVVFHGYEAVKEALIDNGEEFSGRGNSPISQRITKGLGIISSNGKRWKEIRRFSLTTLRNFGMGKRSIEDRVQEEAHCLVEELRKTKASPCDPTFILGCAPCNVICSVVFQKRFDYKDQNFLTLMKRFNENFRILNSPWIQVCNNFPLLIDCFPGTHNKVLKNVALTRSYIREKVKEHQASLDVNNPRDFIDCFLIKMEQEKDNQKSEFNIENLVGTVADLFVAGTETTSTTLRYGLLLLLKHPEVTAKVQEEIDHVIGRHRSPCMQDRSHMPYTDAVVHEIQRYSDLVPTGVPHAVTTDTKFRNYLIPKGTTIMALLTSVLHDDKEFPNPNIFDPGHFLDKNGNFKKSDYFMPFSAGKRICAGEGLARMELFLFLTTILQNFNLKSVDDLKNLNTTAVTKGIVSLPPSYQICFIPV

Liver microsome [15] = experiment: Drug level in human liver microsomes treated with 2 and 20 uM brivanib for 30 mins by LC/MS analysis in presence of 50 uM CYP2E1 inhibitor diethyldithiocarbamate; type: ADME; conditions: 0.5 h
Cytochrome P450 3A5 = Cytochrome P450 3A5 (Homo sapiens, UniProt P20815); experiment: Activity of human CYP3A5 assessed as compound formation treated with 2 and 20 uM brivanib for 20 mins by LC/MS analysis in presence of NADPH; type: ADME
Sequence of Cytochrome P450 3A5 (P20815 whole entry): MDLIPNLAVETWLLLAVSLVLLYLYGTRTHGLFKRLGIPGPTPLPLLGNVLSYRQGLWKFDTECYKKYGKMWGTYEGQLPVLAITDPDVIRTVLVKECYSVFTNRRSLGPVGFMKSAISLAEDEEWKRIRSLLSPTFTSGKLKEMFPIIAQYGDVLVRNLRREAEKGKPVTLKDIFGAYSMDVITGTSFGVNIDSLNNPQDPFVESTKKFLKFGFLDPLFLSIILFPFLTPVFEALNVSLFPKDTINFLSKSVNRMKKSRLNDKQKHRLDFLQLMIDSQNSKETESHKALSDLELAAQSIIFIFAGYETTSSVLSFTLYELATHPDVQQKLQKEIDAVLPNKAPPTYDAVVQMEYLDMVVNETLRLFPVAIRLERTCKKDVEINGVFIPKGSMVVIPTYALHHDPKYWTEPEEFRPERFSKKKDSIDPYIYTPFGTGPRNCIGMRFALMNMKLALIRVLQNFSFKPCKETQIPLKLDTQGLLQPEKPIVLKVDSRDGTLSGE

Liver microsome [16] = experiment: Drug level in human liver microsomes treated with 2 and 20 uM brivanib for 30 mins by LC/MS analysis in presence of 10 uM CYP2C9 inhibitor sulfaphenazole; type: ADME; conditions: 0.5 h
Liver microsome [17] = experiment: Drug level in human liver microsomes treated with 2 and 20 uM brivanib for 30 mins by LC/MS analysis in presence of 1 uM CYP2D6 inhibitor quinidine; type: ADME; conditions: 0.5 h

Sequence of Sulfotransferase 1A1 (P50225 whole entry): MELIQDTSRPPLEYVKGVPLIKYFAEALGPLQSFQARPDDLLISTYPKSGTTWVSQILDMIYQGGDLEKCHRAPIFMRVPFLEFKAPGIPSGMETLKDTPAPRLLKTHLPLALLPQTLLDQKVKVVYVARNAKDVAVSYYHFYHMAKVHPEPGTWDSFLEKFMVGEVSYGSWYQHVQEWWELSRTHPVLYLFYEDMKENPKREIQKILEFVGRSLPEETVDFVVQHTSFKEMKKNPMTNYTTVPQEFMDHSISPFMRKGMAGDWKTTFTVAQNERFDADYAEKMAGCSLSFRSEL

Cc1cc2c(F)c(Oc3ncnn4cc(OC[C@@H](C)OS(=O)(=O)O)c(C)c34)ccc2[nH]1
Drug metabolism (Sulfotransferase 1A1): metabolite_detected
Drug metabolism (Sulfotransferase 1B1): metabolite_detected
Drug metabolism (Liver cytosol [1]): metabolite_detected
Drug metabolism (Sulfotransferase 1A3): metabolite_detected
Drug metabolism (Sulfotransferase 1E1): metabolite_detected
Drug metabolism (Sulfotransferase 2A1): metabolite_detected

Cc1cc2c(F)c(Oc3n[14cH]nn4cc(OC[C@@H](C)OC(=O)[C@H](C)N)c(C)c34)ccc2[nH]1
Drug metabolism (Liver microsome [2]): metabolite_not_detected
Drug metabolism (Liver microsome [3]): metabolite_not_detected
Drug metabolism (Liver microsome [4]): metabolite_detected
Drug metabolism (Liver microsome [5]): metabolite_detected
Drug metabolism (Liver microsome [6]): metabolite_detected
Drug metabolism (Liver microsome [7]): metabolite_not_detected
Drug metabolism (Liver microsome [8]): metabolite_detected
Drug metabolism (Liver microsome [9]): metabolite_detected
Drug metabolism (Liver cytosol [10]): metabolite_detected

Cc1c(OC[C@@H](C)O)cn2ncnc(Oc3ccc4[nH]c(CO)cc4c3F)c12
Drug metabolism (Cytochrome P450 2A6): metabolite_detected
Drug metabolism (Liver microsome [11]): metabolite_detected
Drug metabolism (Cytochrome P450 2D6): metabolite_detected
Drug metabolism (Cytochrome P450 2C9): metabolite_detected
Drug metabolism (Cytochrome P450 2C19): metabolite_detected
Drug metabolism (Cytochrome P450 1B1): metabolite_detected
Drug metabolism (Cytochrome P450 1A2): metabolite_detected
Drug metabolism (Cytochrome P450 1A1): metabolite_detected
Drug metabolism (Cytochrome P450 2B6): metabolite_detected
Drug metabolism (Cytochrome P450 3A4): metabolite_detected
Drug metabolism (Liver microsome [12]): metabolite_detected
Drug metabolism (Liver microsome [13]): metabolite_detected
Drug metabolism (Liver microsome [14]): metabolite_detected
Drug metabolism (Cytochrome P450 2C8): metabolite_detected
Drug metabolism (Liver microsome [15]): metabolite_detected
Drug metabolism (Cytochrome P450 3A5): metabolite_detected
Drug metabolism (Liver microsome [16]): metabolite_detected
Drug metabolism (Liver microsome [17]): metabolite_detected
